Assay results reported in article PMC8428568, “Discovery of re-purposed drugs that slow SARS-CoV-2 replication in human cells” (PLoS Pathogens, 2021).
Read-outs that look alike come from different tables or passages of the source. *1 amine or outer side, *2 acyl side, *3 side chain or, on linkers, in order; H or OH if unused. Where a SMILES comes first, the peptide text is derived from it. Bridges are numbered along the chain shown (N, C = ends). [ ]: non-standard residue; d: D form. The star is where a group is joined. pTerphenylCO(4''-OnC5H11) = CCCCCOc1ccc(-c2ccc(-c3ccc(C(=O)*)cc3)cc2)cc1; Orn(4R-OH,5R-OH) = O=C([C@H](C[C@@H](O)[C@@H](O)N[*:3])N[*:1])[*:2]; hTyr(3S-OH,4S-OH) = N[C@H](C(=O)O)[C@H](O)[C@@H](O)c1ccc(O)cc1; Pro(3S-OH,4S-Me) = C[C@H]1CN[C@H](C(=O)O)[C@H]1O; Hyp = O=C(O)[C@@H]1C[C@@H](O)CN1

Assays:
[1] = system: SARS-CoV-2-ΔOrf7a-NLuc virus; assay: microbe, parasite or virus in culture; assay type: cell-based; settings: for activity at 10 µM: Severe acute respiratory syndrome coronavirus 2, Vero, 72 h, read-out: Mean relative luminescence (n=4)
[2] = system: SARS-CoV-2-ΔOrf7a-NLuc virus; assay: microbe, parasite or virus in culture; assay type: cell-based; settings: for Mean relative luminescence (n=4): HUH7 screen
[3] = system: Vero cells
[4] = system: HUH7 cells; settings: for PrestoBlue relative viability: HUH7 screen; for toxic effects on cells: HUH7 cells screen
[5] = system: recombinant NLuc; assay type: biochemical; settings: for Relative Recombinant NLUC: recombinant NLuc activity relative to DMSO; for Reads Counts per second (read 1) / Reads Counts per second (read 4) / Reads Counts per second (read 3) / Reads Counts per second (read 2): recombinant NLuc; for Reads Counts per second (read 1): first read column; for Reads Counts per second (read 4): fourth read column; for Reads Counts per second (read 3): third read column
[6] = Vero screen, relative luminescence
[7] = 1 = untreated, 0 = total inhibition
[8] = Vero cells, 10 μM, 1 = DMSO-treated infected cells

SMILES	effect on virus replication [2]	Mean relative luminescence (n=4) [1, 6]	Mean relative luminescence (n=4) [2]	PrestoBlue relative viability [3, 8]	PrestoBlue relative viability ([3]; Vero screen)	PrestoBlue relative viability [4]	activity at 10 µM [1, 7]	% activity in Vero 100PFU screen [1]	Relative Recombinant NLUC [5]	Reads Counts per second (read 1) [5]	Reads Counts per second (read 4) [5]	Reads Counts per second (read 3) [5]	also measured
CC(C)c1nc(CN(C)C(=O)N[C@H](C(=O)N[C@@H](Cc2ccccc2)C[C@H](O)[C@H](Cc2ccccc2)NC(=O)OCc2cncs2)C(C)C)cs1 [Ritonavir]	failed to halt replication of SARS-CoV-2												effect on virus replication [1]: failed to halt replication of SARS-CoV-2
Cl.Cl.Fc1ccc(C(c2ccc(F)cc2)N2CCN(C/C=C/c3ccccc3)CC2)cc1 [Flunarizine 2HCl]		0.1133	0.1091	2.629	2.629	0.9689							Mean relative luminescence (n=4) [1, 7]: 0.1133
CCOC(=O)C1=C(COCCN)NC(C)=C(C(=O)OC)C1c1ccccc1Cl (stereo not shown) [Amlodipine Besylate]		0.124	0.03381	1.385	1.385	0.6859	12.4%						
CC[C@H]1OC(=O)[C@H](C)[C@@H](O[C@H]2C[C@@](C)(OC)[C@@H](O)[C@H](C)O2)[C@H](C)[C@@H](O[C@@H]2O[C@H](C)C[C@H](N(C)C)[C@H]2O)[C@](C)(O)C[C@@H](C)CN(C)[C@H](C)[C@@H](O)[C@]1(C)O [azithromycin]	did show some effects												toxic effects on cells [4]: toxic effects on cells
COC(=O)C[C@](O)(CCCC(C)(C)O)C(=O)O[C@@H]1C(OC)=C[C@]23CCCN2CCc2cc4c(cc2[C@H]13)OCO4 [Homoharringtonine]		0.01441	0.0133	0.5068	0.5068	0.6794	1.44%						
C[C@@H]1C[C@H]2[C@@H]3CCC4=CC(=O)C=C[C@]4(C)[C@@]3(F)[C@@H](O)C[C@]2(C)[C@@]1(O)C(=O)CO [dexamethasone]	did not demonstrate any effect on viral replication												effect on virus replication [1]: did not demonstrate any effect on viral replication
CCN(CCO)CCCC(C)Nc1ccnc2cc(Cl)ccc12 (stereo not shown) [hydroxychloroquine]	did show some effects												toxic effects on cells [4]: toxic effects on cells
O=C1CCc2ccc(OCCCCN3CCN(c4cccc(Cl)c4Cl)CC3)cc2N1 [Aripiprazole]		0.1007	0.008694	0.6278	0.6278	0.7416	10.1%						
Cc1ccc(NC(=O)c2ccc(CN3CCN(C)CC3)cc2)cc1Nc1nc(-c2cccnc2)cs1 [Masitinib (AB1010), Masitinib]		0.1339	0.03917	1.308	1.308	0.7156	13.4%						
C=CC(=O)Nc1cccc(Nc2nc(Nc3ccc(N4CCN(C(C)=O)CC4)cc3OC)ncc2C(F)(F)F)c1 [CO-1686 (AVL-301)]				0.5096				3%	0.8551	327566 Counts per second	319872 Counts per second	324163 Counts per second	Mean relative luminescence (n=4) [1, 7]: 0.02339
CC[C@@H]([C@H](C)O)n1ncn(-c2ccc(N3CCN(c4ccc(OC[C@@H]5CO[C@@](Cn6cncn6)(c6ccc(F)cc6F)C5)cc4)CC3)cc2)c1=O [Posaconazole]				0.7676			5.17%	6%	0.8565	325406 Counts per second	315077 Counts per second	324458 Counts per second	
C=C1CC[C@H](O)C/C1=C/C=C1\CCC[C@]2(C)[C@@H]([C@H](C)/C=C/[C@H](C)C(C)C)CC[C@@H]12 [vitamin D2]	also reduced virus replication but did not meet all criteria												effect on virus replication [1]: also reduced virus replication but did not meet all criteria
CCCCCOc1ccc(-c2ccc(-c3ccc(C(=O)N[C@H]4C[C@@H](O)[C@@H](O)NC(=O)[C@@H]5[C@@H](O)[C@@H](C)CN5C(=O)[C@H]([C@@H](C)O)NC(=O)[C@H]([C@H](O)[C@@H](O)c5ccc(O)cc5)NC(=O)[C@@H]5C[C@@H](O)CN5C(=O)[C@H]([C@@H](C)O)NC4=O)cc3)cc2)cc1 [Anidulafungin] ({pTerphenylCO(4''-OnC5H11)}-[Orn(4R-OH,5R-OH)]T[Hyp][hTyr(3S-OH,4S-OH)]T[Pro(3S-OH,4S-Me)]; lactam 1-C)				0.5453			2.32%	4.57%	0.974	365229 Counts per second	366012 Counts per second	364202 Counts per second	Reads Counts per second (read 2) [5]: 376574 Counts per second
CC1=NN(c2ccc(C)c(C)c2)C(=O)/C1=N\Nc1cccc(-c2cccc(C(=O)O)c2)c1O [Eltrombopag]				0.7191			0.991%	3.72%	0.8666	331875 Counts per second	322913 Counts per second	331553 Counts per second	
O=C(/C=C/c1cccc(S(=O)(=O)Nc2ccccc2)c1)NO [Belinostat (PXD101), Belinostat]				0.895			0.0366%	4.67%	0.9408	351877 Counts per second	355423 Counts per second	352055 Counts per second	Reads Counts per second (read 2) [5]: 362403 Counts per second
Cc1cccc(C)c1OCC(=O)N[C@@H](Cc1ccccc1)[C@@H](O)C[C@H](Cc1ccccc1)NC(=O)[C@H](C(C)C)N1CCCNC1=O [Lopinavir]	failed to halt replication of SARS-CoV-2												effect on virus replication [1]: failed to halt replication of SARS-CoV-2
